Assay results reported in article PMC9653995, “New Positive TRPC6 Modulator Penetrates Blood–Brain Barrier, Eliminates Synaptic Deficiency and Restores Memory Deficit in 5xFAD Mice” (International Journal of Molecular Sciences, 2022).

System: Aβ42-treated hippocampal neurons
Experiment: In vitro amyloid synaptotoxicity model: mushroom spine percentage in primary hippocampal neuronal cultures
Assay type: cell-based, mouse
Settings: 24 h, mean ± SEM
Procedure: The average percentages of mushroom spines (MS%) in each experimental condition are presented as mean ± SEM (n = 20–30 neurons for each group from three batches of cultures). We observed that 24-h incubation in the presence of 1 µM and 100 nM of C20 rescues mushroom spine loss in Aβ42-treated hippocampal neurons. C20 lost its activity at a 10 nM concentration (Figure 2B, mushroom spine percentage (MS%) in the Control, 29.07 ± 1.15%; Control + C20 [1 µM], 31.32 ± 1.46%; Control + C20 [100 nM], 30.11 ± 0.86%; Control + C20 [10 nM]; […]; Aβ42, 19.82 ± 1.13%; Aβ42 + C20 [1 µM], 29.00 ± 1.94%; Aβ42 + C20 [100 nM], 27.28 ± 1.81%; Aβ42 + C20 [10 nM], 18.64 ± 1.63%; two-way ANOVA following Tukey’s multiple comparisons test, P values are indicated in the Figure).
Primary hippocampal neuronal cultures were prepared as previously described. Briefly, hippocampuses from postnatal day 0–2 FVB/NJ mice were removed and cut into small pieces in ice-cold buffer (1% 10x CMF-HBSS (Gibco, Grand Island, NY, USA; #14185), 1% Pen Strep (Gibco, #15140), 16 MM HEPES (Sigma, St Louis, MO, USA; #H3375), 10 MM NaHCO3 (Sigma, #S5761); pH = 7.2). Cell tissue was dissociated by trituration with 5 mg/mL DNase I solution (Sigma, #DN-25) after papain (Worthington, Columbus, OH, USA; #LK003176) digestion for 30 min at 37 °C. Hippocampal neurons were plated onto poly-D-lysine (Sigma, #P0899) coated 12 mm glass coverslips (Thermo Scientific, Braunschweig, Germany; #CB00120RA1) in 24-well dishes. in Neurobasal/B-27 with the addition of insulin-transferrin-sodium selenite (Sigma-Aldrich). Cells were grown in 1 mL of Neurobasal medium (Gibco, #10888) supplemented with 1% FBS (Gibco, #10500), 2% 50xB27 (Gibco, #17504), 0.05 MM L- Glutamine (Gibco, #250030). The cultures were maintained at 37 °C in a 5% CO2 incubator. Half of the medium was replaced with a new culture medium at DIV 7 and DIV 14. At DIV 14, neurons were fixed for 10 min with 4% paraformaldehyde sucrose in PBS at room temperature.
Neurons were transfected using the calcium phosphate method at DIV 7 as previously described with alterations that were described earlier. The transfection kit was obtained from Clontech (TAKARA Biotechnology, Mountain View, CA, USA; #631312).
Aβ42 peptides were purchased from AnaSpec (Anaspec, Freemont, CA, USA; #AS-20276). Stock solution [1 mg/mL] was prepared as described earlier and stored at −20 °C. Working Aβ42 solution was made immediately prior to treatment of the cells by diluting the stock concentration to 6.6 µM final Aβ peptide concentrations in Neurobasal. The working solution was incubated at +4 °C for 24 h to obtain the oligomeric conditions as described. […]

COc1cc2c(cc1OC)C(c1cc3ccccc3oc1=O)=NC(C)(C)C2 [C20, 3-(3-,4-Dihydro-6,7-dimethoxy-3,3-dimethyl-1-isoquinolinyl)-2H-1-benzopyran-2-one]
mushroom spine percentage (MS%) (Aβ42-treated cultures + 10 nM, Aβ42 alone 19.82 ± 1.13%): 18.64 ± 1.63%
mushroom spine percentage (MS%) (Aβ42-treated cultures + 100 nM, Aβ42 alone 19.82 ± 1.13%): 27.28 ± 1.81%
mushroom spine percentage (MS%) (Aβ42-treated cultures + 1 µM, Aβ42 alone 19.82 ± 1.13%): 29.00 ± 1.94%
mushroom spine percentage (MS%) (Control cultures + 100 nM, Control 29.07 ± 1.15%): 30.11 ± 0.86%
